From ChEMBL document CHEMBL1201862, “PubChem BioAssay data set” (2004)
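Method: 48-hour compound exposure of cells in 96-well plates, five concentrations, linear interpolation of endpoints. The concentration for 50% growth inhibition is given as GI50.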 The source made the active and inactive calls. Cut-off read from the data, not from the text of the source: active = GI50 up to about 1.1 µM and inactive = higher.

How the values were obtained:
Test in all cases: growth of human tumour cells (NCI), 48 h
[1] = system: 786-0
[2] = system: A498
[3] = system: A549
[4] = system: ACHN
[5] = system: BT-549
[6] = system: CAKI-1
[7] = system: CCRF-CEM
[8] = system: COLO 205
[9] = system: DU-145
[10] = system: HCC 2998
[11] = system: HCT-116
[12] = system: HCT-15
[13] = system: HL-60
[14] = system: HOP-62
[15] = system: HOP-92
[16] = system: HT-29
[17] = system: Hs-578T
[18] = system: IGROV-1
[19] = system: K562
[20] = system: KM12
[21] = system: LOX IMVI
[22] = system: M14
[23] = system: MCF7
[24] = system: MDA-MB-231
[25] = system: MDA-MB-435
[26] = system: MDA-N
[27] = system: MOLT-4
[28] = system: Malme-3M
[29] = system: NCI-H226
[30] = system: NCI-H23
[31] = system: NCI-H460
[32] = system: NCI-H522
[33] = system: NCI/ADR-RES
[34] = system: OVCAR-3
[35] = system: OVCAR-4
[36] = system: OVCAR-5
[37] = system: OVCAR-8
[38] = system: PC-3
[39] = system: RPMI-8226
[40] = system: RXF 393
[41] = system: SF-268
[42] = system: SF-295
[43] = system: SF-539
[44] = system: SK-MEL-28
[45] = system: SK-MEL-2
[46] = system: SK-MEL-5
[47] = system: SK-OV-3
[48] = system: SN12C
[49] = system: SNB-19
[50] = system: SNB-75
[51] = system: SR
[52] = system: SW-620
[53] = system: T47D
[54] = system: TK-10
[55] = system: U-251
[56] = system: UACC-257
[57] = system: UACC-62
[58] = system: UO-31
[59] = system: EKVX

## CC(=O)NC1CCC(NC(=O)OC(C)(C)C)C(NC(=O)OC(C)(C)C)C1 (configuration not stated)
[1]
  GI50: > 100 µM (inactive)
[2]
  GI50: > 100 µM (inactive)
[3]
  GI50: > 100 µM (inactive)
[4]
  GI50: > 100 µM (inactive)
[5]
  GI50: > 100 µM (inactive)
[6]
  GI50: > 100 µM (inactive)
[7]
  GI50: > 100 µM (inactive)
[8]
  GI50: > 100 µM (inactive)
[9]
  GI50: > 100 µM (inactive)
[10]
  GI50: > 100 µM (inactive)
[11]
  GI50: > 100 µM (inactive)
[12]
  GI50: > 100 µM
[13]
  GI50: > 100 µM (inactive)
[14]
  GI50: > 100 µM (inactive)
[15]
  GI50: > 100 µM (inactive)
[16]
  GI50: > 100 µM (inactive)
[17]
  GI50: > 100 µM (inactive)
[18]
  GI50: > 100 µM (inactive)
[19]
  GI50: > 100 µM (inactive)
[20]
  GI50: > 100 µM (inactive)
[21]
  GI50: > 100 µM (inactive)
[22]
  GI50: > 100 µM (inactive)
[23]
  GI50: > 100 µM (inactive)
[24]
  GI50: > 100 µM (inactive)
[25]
  GI50: > 100 µM (inactive)
[26]
  GI50: > 100 µM (inactive)
[27]
  GI50: > 100 µM (inactive)
[28]
  GI50: > 100 µM (inactive)
[29]
  GI50: > 100 µM (inactive)
[30]
  GI50: > 100 µM (inactive)
[31]
  GI50: > 100 µM (inactive)
[32]
  GI50: > 100 µM (inactive)
[33]
  GI50: > 100 µM (inactive)
[34]
  GI50: > 100 µM (inactive)
[35]
  GI50: > 100 µM (inactive)
[36]
  GI50: > 100 µM (inactive)
[37]
  GI50: > 100 µM (inactive)
[38]
  GI50: > 100 µM (inactive)
[39]
  GI50: > 100 µM (inactive)
[40]
  GI50: > 100 µM (inactive)
[41]
  GI50: > 100 µM (inactive)
[42]
  GI50: > 100 µM (inactive)
[43]
  GI50: > 100 µM (inactive)
[44]
  GI50: > 100 µM (inactive)
[45]
  GI50: > 100 µM (inactive)
[46]
  GI50: > 100 µM (inactive)
[47]
  GI50: > 100 µM (inactive)
[48]
  GI50: > 100 µM (inactive)
[49]
  GI50: > 100 µM (inactive)
[50]
  GI50: > 100 µM (inactive)
[51]
  GI50: > 100 µM (inactive)
[52]
  GI50: > 100 µM (inactive)
[53]
  GI50: > 100 µM (inactive)
[54]
  GI50: > 100 µM (inactive)
[55]
  GI50: > 100 µM (inactive)
[56]
  GI50: > 100 µM (inactive)
[57]
  GI50: > 100 µM (inactive)
[58]
  GI50: > 100 µM (inactive)

## OC1[C@@H]2[C@@H](O)CCCN2C[C@@H](O)[C@H]1O (some centres not stated)
[1]
  GI50: > 100 µM (inactive)
[2]
  GI50: > 100 µM (inactive)
[3]
  GI50: > 100 µM (inactive)
[4]
  GI50: > 100 µM (inactive)
[5]
  GI50: > 100 µM (inactive)
[6]
  GI50: > 100 µM (inactive)
[7]
  GI50: > 100 µM (inactive)
[8]
  GI50: > 100 µM (inactive)
[9]
  GI50: > 100 µM (inactive)
[59]
  GI50: > 100 µM (inactive)
[10]
  GI50: > 100 µM (inactive)
[11]
  GI50: > 100 µM (inactive)
[12]
  GI50: > 100 µM
[13]
  GI50: > 100 µM (inactive)
[14]
  GI50: > 100 µM (inactive)
[15]
  GI50: > 100 µM (inactive)
[16]
  GI50: > 100 µM (inactive)
[17]
  GI50: > 100 µM (inactive)
[18]
  GI50: > 100 µM (inactive)
[19]
  GI50: > 100 µM (inactive)
[20]
  GI50: > 100 µM (inactive)
[21]
  GI50: > 100 µM (inactive)
[22]
  GI50: > 100 µM (inactive)
[23]
  GI50: > 100 µM (inactive)
[24]
  GI50: > 100 µM (inactive)
[25]
  GI50: > 100 µM (inactive)
[26]
  GI50: > 100 µM (inactive)
[27]
  GI50: > 100 µM (inactive)
[28]
  GI50: > 100 µM (inactive)
[29]
  GI50: > 100 µM (inactive)
[30]
  GI50: > 100 µM (inactive)
[31]
  GI50: > 100 µM (inactive)
[32]
  GI50: 19.5 µM (inactive)
[33]
  GI50: > 100 µM (inactive)
[34]
  GI50: > 100 µM (inactive)
[35]
  GI50: > 100 µM (inactive)
[36]
  GI50: > 100 µM (inactive)
[37]
  GI50: > 100 µM (inactive)
[38]
  GI50: > 100 µM (inactive)
[39]
  GI50: > 100 µM (inactive)
[40]
  GI50: > 100 µM (inactive)
[41]
  GI50: > 100 µM (inactive)
[42]
  GI50: > 100 µM (inactive)
[43]
  GI50: > 100 µM (inactive)
[44]
  GI50: > 100 µM (inactive)
[45]
  GI50: > 100 µM (inactive)
[46]
  GI50: > 100 µM (inactive)
[47]
  GI50: > 100 µM (inactive)
[48]
  GI50: > 100 µM (inactive)
[49]
  GI50: > 100 µM (inactive)
[50]
  GI50: > 100 µM (inactive)
[51]
  GI50: > 100 µM (inactive)
[52]
  GI50: > 100 µM (inactive)
[53]
  GI50: > 100 µM (inactive)
[54]
  GI50: > 100 µM (inactive)
[55]
  GI50: > 100 µM (inactive)
[56]
  GI50: > 100 µM (inactive)
[57]
  GI50: > 100 µM (inactive)
[58]
  GI50: > 100 µM (inactive)
